Data on 4 compounds can be found in PMC6478789, “A chemical toolbox for the study of bromodomains and epigenetic signaling” (Nature Communications, 2019).

One assay concerns the target TAF1L(2). Also noted: method as in ref 13 (suppl.). Conditions: ITC data; ref 13 (suppl.); cited from earlier work.
The target of another assay is T1, GCN5L2 (Homo sapiens, UniProt Q92830).
T1 sequence (Q92830 728-832 limits assumed): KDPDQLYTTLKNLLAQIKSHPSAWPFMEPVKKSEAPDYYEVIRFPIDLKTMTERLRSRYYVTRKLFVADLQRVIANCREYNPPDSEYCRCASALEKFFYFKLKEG
On the set-up: purchased; method as in ref 2 (suppl.), 26 (main text). The following applies: BROMOscan; ref 2 (suppl.), 26; read-out: KD (nM), GCN5; cited from earlier work.

A further assay addresses T2, PCAF (Homo sapiens, UniProt Q92831).
T2 sequence (Q92831 723-827 limits assumed): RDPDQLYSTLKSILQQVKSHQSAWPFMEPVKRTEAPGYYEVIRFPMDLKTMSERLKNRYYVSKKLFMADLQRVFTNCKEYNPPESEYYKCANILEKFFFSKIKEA
On the set-up: purchased; method as in ref 2 (suppl.), 26 (main text). Conditions: BROMOscan; ref 2 (suppl.), 26; cited from earlier work.

Another assay addresses GCN5. Also noted: method as in ref 1 (suppl.), 25 (main text). The following applies: ITC data; ref 1 (suppl.), 25; cited from earlier work.
The next assay relates to MDA-MB436 cells. The assay is described as follows: Cell apoptosis assay (caspase-3/7). The following applies: 3 μM OF-1 + 3 μM BAY-876, 5 days, versus either alone. The class given is cell-based, human. The method, then:
Cells were seeded into 96-well plates at 3000 cells per well and left to adhere overnight. Then, cells were treated with DMSO or BAY-876 for 5 days, followed by addition of Incucyte TM Caspase- 3/7 reagents. Imaging of plates was carried out in an Incucyte Zoom instrument with a ×10 objective using the standard scan type. Data were analyzed using the integrated software provided with the instrument.
(§1) Wu et al., Supplementary figures and tables 5 indicate mean and error bars denote standard deviation from eight wells (from two independent assays). b) A representative immunoblot of histone acetylation level across ten TNBC lines. c) Plot of ECAR and histone acetylation across ten TNBC lines. […] Cell apoptotic activity was quantified by the fluorescent caspase 3/7 active objects. […]
Graph indicate mean and error bars denote standard deviation from four independent assay s. p value computed using a two - stage step -up Benjamini t test j) Immunoblot based quantification of H3K14ac abundance using total H3 as a control in MDA-MB-436 cells following control or 3 μM of the indicated chemical probes during a 5-day treatment. Graph indicate mean and error bars denote standard deviation from three independent assays. p value computed using a two-stage step-up Benjamini t test; **p<0.01; *** p<0.001. k) Immunoblot based quantification of H3K14ac abundance using total […]

Assay [1] deals with MDA-MB-436 cells. The assay is described as follows: Confluency with BRPF inhibitors and BAY-876. The following applies: 3 μM, 7 days. In kind it is cell-based, human. The method, then:
Graph indicates mean, error bars denote s.d. from eight wells (from two independent assays) and p-value was computed using the Benjamini-Hochberg t test; ***p < 0.001. d Immunoblot validation of BRPF knockdown in MDA-MB-436 cells. e Quantitative real-time PCR (RT-qPCR) validation of BRPF knockdown in MDA-MB-436 cells. […] Raw data images are available in Supplementary Fig. 4
TNBC cell lines were seeded in sterile, transparent 384-well plates at 500 cells per well in 50 µl media. Chemical probes were delivered in dimethyl sulfoxide (DMSO). Cell confluency at 7 days was evaluated using an Incucyte ZOOM live cell imaging device (Essen Bioscence) and analyzed with the Incucyte ZOOM (2016A) software based on phase contrast image.

Assay [2] has as its system MDA-MB-436 cells. As to the kind of experiment: Immunoblot of H3K14 acetylation. Conditions: 3 μM, 5 days; compared to NI-57 and PFI-4. The class given is cell-based, human.
From the text: Graph indicates mean, error bars denote s.d. from eight wells (from two independent assays) and p-value was computed using the Benjamini-Hochberg t test; ***p < 0.001. d Immunoblot validation of BRPF knockdown in MDA-MB-436 cells. e Quantitative real-time PCR (RT-qPCR) validation of BRPF knockdown in MDA-MB-436 cells. […] Raw data images are available in Supplementary Fig. 4 […]
Total cell lysates were resolved in 4−12% Bis-Tris protein gels (Invitrogen) with MOPS (3-(N-morpholino)propanesulfonic acid) buffer (Invitrogen) and transferred for 1.5 h (80 V) onto polyvinylidene fluoride membrane (Millipore) in Tris-glycine transfer buffer containing 20% MeOH and 0.05% sodium dodecyl sulfate. […] The signal was read on an Odyssey scanner (LiCor) at 800 and 700 nm.
as §1
(In general: In western blotting, separated proteins are transferred to a membrane and probed.)

What is called Kd is the free concentration of one partner at which half of the binding sites on the other are occupied at equilibrium, for simple one-to-one binding. On to `Cc1cc2c(cc1N1C(=O)c3cccc4c(CCCO)ccc(c34)C1=O)n(C)c(=O)n2C` [BAY-299], for which the Kd at TAF1L(2) is 234 nM.

Turning to `CN1C[C@H](Nc2cnn(C)c(=O)c2Br)C[C@H](c2ccccc2)C1` [GSK4027], the dissociation constant (Kd) at GCN5L2 and at PCAF was 1.4 nM throughout.

As to `Cc1nnc2c3ccccc3c(N[C@@H](C)[C@H](c3ccccc3)N(C)C)nn12` [L-Moses], on GCN5, the equilibrium dissociation constant (Kd) was 600 nM.

With `COc1cc2c(cc1NS(=O)(=O)c1ccc(Br)cc1C)n(C)c(=O)n2C` [OF-1], in the assay on MDA-MB436 cells, the “apoptosis markers caspase-3/7” value is on record as “induced at a significantly higher level”. The “cell viability, co-treatment with BAY-876” value in the assay with MDA-MB-436 cells [1] is recorded as “strongest reduction of cell viability”. The “acetylation of H3K14” value in the assay with MDA-MB-436 cells [2] was “significantly decreased”.
